Data on six compounds can be found in patent US9527859B2, “Amidopyridine derivative and use thereof” (Mitsubishi Tanabe Pharma Corporation, priority 2012, dated 2016).

By IC50 is commonly meant the midpoint of a concentration-inhibition curve.

Data set [1] deals with production of IL-17 in mouse splenocytes stimulated by recombinant mouse interleukin-23. Briefly: Production of IL-17 induced when mouse splenocytes were stimulated by rm-IL-23 (ELISA). Format: cell-based. The settings on record: Splenocyte, inhibition of IL-17 production, rm-IL-23 1 nmol/L, 72 hours. The procedure, abridged: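 Splenocytes from 6–7-week-old male DBA/1J mice (2×10^5 cells/well) stimulated with 1 nmol/L rm-IL-23 plus compound (1 to 1,000 nmol/L final) for 72 h at 37 °C. Supernatant IL-17 measured by ELISA, viability by WST-8 at 450 nm; IC50 obtained by linear regression of % inhibition versus vehicle.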
(In general: An ELISA detects its analyte on a solid surface through an enzyme-linked reagent.)

Data set [2] has as its target T1, hERG current in hERG-expressed HEK 293 cells (Homo sapiens, UniProt Q12809).
T1 construct: host or cells: HEK 293 cells, G418-selected
In words: Effects on hERG current (whole-cell clamp). It counts as cell-based. To be noted: 1 μM of test compound, tail peak current. On the procedure:
Dimethylsulfoxide was used as a vehicle, and hERG-expressed HEK 293 cells (Cytomyx) were used as test cells. Test cells were once cultured and subdivided and were stored under frozen condition in liquid nitrogen. In the study, thawed and subcultured cells having less than 30 of the passage number were used. Test cells were cultured in a carbon dioxide gas incubator BNP-110M (Tabai Espec Corp.) at 37±1° C. and 5.0±0.5% of carbon dioxide concentration. The component of culture medium was basically MEM (Minimum Essential Medium) supplemented with 10 vol % fetal bovine serum (non-activated), 1 mmol/L sodium pyruvate, 0.1 mmol/L non-essential amino acid and 100 U/mL penicillin/100 μg/mL streptomycin. To select gene-expressing cells, 400 μg/mL G418 Sulphate (Invitrogen) was added to the culture medium. […] A manufacturer of the culture solution is Invitrogen Corporation.
As to seeding of cells for measurement, subcultured cells which became confluent were treated with 0.25% trypsin-solution containing 1 mmol/L EDTA (Invitrogen) to remove therefrom, and seeded on dishes overlaid with sterilized collagen-coated cover glass (Iwaki, AGC Techno Glass Co., LTD). The medium was exchanged appropriately, including the day of measurement.
A perfusion method was carried out for an application route. Test cells were perfused (perfusion speed: approximately 4 mL/min) with an external solution containing specified concentrations of test compounds (component of external solution: 137 mmol/L of sodium chloride, 4 mmol/L of potassium chloride, 10 mmol/L of HEPES, 1.8 mmol/L of calcium chloride, 1 mmol/L of magnesium chloride and 10 mmol/L of glucose; adjusted to pH 7.4±0.1 with sodium hydroxide solution). When no effects were observed until 4 minutes after switching to a test compound solution, the next different concentration of the test compound was perfused. When effects were observed, the perfusion was continued until the maximum response was observed. The maximum perfusion time for lower concentrations of test compound was set for 10 minutes even when effects were observed. The data were obtained from one experiment or more and the cells which were gently incubated in a carbon dioxide incubator after seeding and attached to cover glasses were used for the measurement.
A whole-cell clamping method was applied to the measurement. Test cells were perfused (perfusion speed: approximately 4 mL/min) with an external solution (component of external solution: 137 mmol/L of sodium chloride, 4 mmol/L of potassium chloride, 10 mmol/L of HEPES, 1.8 mmol/L of calcium chloride, 1 mmol/L of magnesium chloride and 10 mmol/L of glucose; adjusted to pH 7.4±0.1 with sodium hydroxide solution). A glass electrode with a resistance of 2 to 6 MΩ, filled with an internal solution (component: 130 mmol/L of potassium chloride, 1 mmol/L of magnesium chloride, 5 mmol/L of EGTA, 10 mmol/L of HEPES and 5 mmol/L of ATP, adjusted to pH 7.2±0.1 with potassium hydroxide solution) was used. After rupturing cell membrane with glass electrode, the cell membrane voltage was held at −80 mV by using patch clamp amplifier (EPC8, HEKA) via a patch clamp software (pCLAMP9 [Axon CNS], Molecular Devices). As illustrated below, a test pulse of +20 mV for 1.5 seconds and −40 mV for 1.5 seconds was given once every 15 seconds. One minute or more after obtaining 500 pA or higher peak value of the stable tail currents, test compounds were applied. Test cells and the cell-seeded cover glass were changed every treatment. Temperature of the fluid in a perfusion fluid tank was 24±2° C.
The obtained current was recorded on a computer by using a patch clamp software via a patch clamp amplifier. An evaluation item was a tail peak current.
A tail peak current was analyzed using analyzing software (Clampfit 9 [Axon CNS], MolecularDevices). […]

T1 sequence (Q12809 whole entry): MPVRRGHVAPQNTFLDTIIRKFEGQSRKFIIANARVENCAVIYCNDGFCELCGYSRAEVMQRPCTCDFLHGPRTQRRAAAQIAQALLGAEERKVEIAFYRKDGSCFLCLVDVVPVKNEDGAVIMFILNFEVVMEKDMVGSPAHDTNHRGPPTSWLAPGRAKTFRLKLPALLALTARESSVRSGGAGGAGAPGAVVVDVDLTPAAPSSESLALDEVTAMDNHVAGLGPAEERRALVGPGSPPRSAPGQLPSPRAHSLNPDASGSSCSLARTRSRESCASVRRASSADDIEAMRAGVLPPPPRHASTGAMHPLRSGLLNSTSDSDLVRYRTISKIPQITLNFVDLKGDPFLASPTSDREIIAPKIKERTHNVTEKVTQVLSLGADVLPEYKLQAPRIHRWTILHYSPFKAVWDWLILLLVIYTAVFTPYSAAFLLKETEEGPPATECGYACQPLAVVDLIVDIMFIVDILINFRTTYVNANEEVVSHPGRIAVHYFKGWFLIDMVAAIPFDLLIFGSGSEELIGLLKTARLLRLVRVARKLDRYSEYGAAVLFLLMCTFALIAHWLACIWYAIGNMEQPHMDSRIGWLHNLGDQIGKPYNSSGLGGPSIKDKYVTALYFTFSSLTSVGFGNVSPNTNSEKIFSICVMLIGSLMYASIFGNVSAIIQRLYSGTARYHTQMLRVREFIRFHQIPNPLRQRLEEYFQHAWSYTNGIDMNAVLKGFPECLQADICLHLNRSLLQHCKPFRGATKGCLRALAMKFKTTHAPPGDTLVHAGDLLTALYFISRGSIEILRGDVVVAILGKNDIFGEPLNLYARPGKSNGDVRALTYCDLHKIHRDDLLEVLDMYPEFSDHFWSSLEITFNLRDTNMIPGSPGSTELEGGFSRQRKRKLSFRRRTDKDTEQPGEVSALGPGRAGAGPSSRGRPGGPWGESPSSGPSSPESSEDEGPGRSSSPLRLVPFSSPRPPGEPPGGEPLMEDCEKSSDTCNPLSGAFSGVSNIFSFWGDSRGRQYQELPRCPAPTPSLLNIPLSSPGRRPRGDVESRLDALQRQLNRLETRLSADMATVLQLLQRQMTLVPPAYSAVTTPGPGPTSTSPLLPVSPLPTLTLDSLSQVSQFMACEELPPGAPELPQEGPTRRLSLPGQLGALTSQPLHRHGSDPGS

As to `Cc1c(C(=O)Nc2cnc(N3CCC(O)CC3)c(C#N)c2)cnn1-c1ccc(Cl)cc1` [Example 44, 1-(4-chlorophenyl)-N-[5-cyano-6-(4-hydroxypiperidin-1-yl)pyridin-3-yl]-5-methyl-1H-pyrazole-4-carboxamide], the IC50 in data set [1] is 74.9 nM. Also, the “Inhibition ratio (%)” value in data set [2] was found to be 2%.
For `Cc1c(C(=O)Nc2cnc(N3CCC(O)CC3)c(C#N)c2)cnn1-c1ccc(C(F)(F)F)cc1` [Example 45, N-[5-cyano-6-(4-hydroxypiperidin-1-yl)pyridin-3-yl]-5-methyl-1-[4-(trifluoromethyl)phenyl]-1H-pyrazole-4-carboxamide], in that order: 72.5 nM and 4.2%.
The matching figures for `Cc1c(C(=O)Nc2cnc(N3CCC(O)CC3)c(C3CC3)c2)cnn1-c1ccc(Cl)cc1` [Example 39, 1-(4-chlorophenyl)-N-[5-cyclopropyl-6-(4-hydroxypiperidin-1-yl)pyridin-3-yl]-5-methyl-1H-pyrazole-4-carboxamide]: 136 nM and 8.1%.
The matching figures for `Cc1cc(NC(=O)c2cnn(-c3ccc(C(F)(F)F)cn3)c2C)cnc1N1CCC(C(C)(C)F)CC1` [Example 49, N-{6-[4-(1-fluoro-1-methylethyl)piperidin-1-yl]-5-methylpyridin-3-yl}-5-methyl-1-[5-(trifluoromethyl)pyridin-2-yl]-1H-pyrazole-4-carboxamide]: 54.7 nM and 40.5%.
For the compound `Cc1cc(NC(=O)c2cnn(-c3ccc(Cl)cc3)c2C)cnc1N1CCC(O)CC1` [Example 43, 1-(4-chlorophenyl)-N-[6-(4-hydroxypiperidin-1-yl)-5-methylpyridin-3-yl]-5-methyl-1H-pyrazole-4-carboxamide], the IC50 in data set [1] was 102 nM. The “Inhibition ratio (%)” value in data set [2] is given as 9.4%.
For `Cc1cc(NC(=O)c2cnn(-c3ccc(C(F)(F)F)cc3)c2C)cnc1N1CCC(C(C)(C)F)CC1` [Example 47, N-{6-[4-(1-fluoro-1-methylethyl)piperidin-1-yl]-5-methylpyridin-3-yl}-5-methyl-1-[4-(trifluoromethyl)phenyl]-1H-pyrazole-4-carboxamide], in data set [1], the IC50 was found to be 57.9 nM. Further, in data set [2], the “Inhibition ratio (%)” value is listed as 32.7%.
